Experimental data as given in ChEMBL document CHEMBL6083264, “Superacid-Synthesized Fluorinated Diamines Act as Selective hCA IV Inhibitors” (J Med Chem, 2024).

Assays:
Carbonic anhydrase 9 = Carbonic anhydrase 9 (Homo sapiens, UniProt Q16790)
Description: Inhibition of human CA-IX-catalysed CO2 hydration activity incubated for 15 min by Phenol red dye based assay

Carbonic anhydrase 2 = Carbonic anhydrase 2 (Homo sapiens, UniProt P00918)
Description: Inhibition of human CA-II-catalysed CO2 hydration activity incubated for 15 min by Phenol red dye based assay

Carbonic anhydrase 1 = Carbonic anhydrase 1 (Homo sapiens, UniProt P00915)
Description: Inhibition of human CA-I-catalysed CO2 hydration activity incubated for 15 min by Phenol red dye based assay

Carbonic anhydrase 12 = Carbonic anhydrase 12 (Homo sapiens, UniProt O43570)
Description: Inhibition of human CA-XII-catalysed CO2 hydration activity incubated for 15 min by Phenol red dye based assay

Carbonic anhydrase 4 [1] = target: T1, Carbonic anhydrase 4 (Homo sapiens, UniProt P22748)
Description: Inhibition of human CA-IV-catalysed CO2 hydration activity incubated for 15 min by Phenol red dye based assay

Carbonic anhydrase 4 [2] = target: T1, Carbonic anhydrase 4; remark: listed apart in the source
Description: Inhibition of human CA-IV

Carbonic anhydrase 12, sequence (O43570 whole entry): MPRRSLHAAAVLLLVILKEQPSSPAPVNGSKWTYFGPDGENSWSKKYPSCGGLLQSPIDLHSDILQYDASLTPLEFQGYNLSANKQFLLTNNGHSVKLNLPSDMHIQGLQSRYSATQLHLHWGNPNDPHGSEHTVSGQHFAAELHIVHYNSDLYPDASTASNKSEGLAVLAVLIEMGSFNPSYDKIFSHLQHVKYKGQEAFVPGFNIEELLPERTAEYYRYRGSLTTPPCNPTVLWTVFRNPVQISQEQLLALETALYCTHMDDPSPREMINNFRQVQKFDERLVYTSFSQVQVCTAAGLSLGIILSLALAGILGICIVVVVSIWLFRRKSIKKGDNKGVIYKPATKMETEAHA
Carbonic anhydrase 1, sequence (P00915 whole entry): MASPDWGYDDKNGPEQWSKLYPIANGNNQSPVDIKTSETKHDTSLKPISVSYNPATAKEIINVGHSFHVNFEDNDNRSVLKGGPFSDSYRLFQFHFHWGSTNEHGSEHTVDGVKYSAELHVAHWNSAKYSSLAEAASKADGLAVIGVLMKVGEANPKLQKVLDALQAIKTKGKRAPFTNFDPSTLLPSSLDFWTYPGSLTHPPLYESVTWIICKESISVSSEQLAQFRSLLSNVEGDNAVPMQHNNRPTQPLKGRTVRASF
T1 sequence (P22748 whole entry): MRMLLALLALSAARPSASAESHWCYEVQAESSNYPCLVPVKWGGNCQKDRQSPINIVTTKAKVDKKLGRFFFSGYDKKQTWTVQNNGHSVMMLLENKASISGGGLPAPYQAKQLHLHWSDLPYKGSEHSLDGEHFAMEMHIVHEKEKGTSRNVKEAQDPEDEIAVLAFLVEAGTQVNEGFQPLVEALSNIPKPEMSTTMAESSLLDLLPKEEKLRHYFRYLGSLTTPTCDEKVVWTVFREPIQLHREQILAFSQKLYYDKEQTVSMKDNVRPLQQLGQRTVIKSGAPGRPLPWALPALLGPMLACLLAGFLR

Ki (Carbonic anhydrase 9) [µM]	Ki (Carbonic anhydrase 2) [µM]	Ki (Carbonic anhydrase 1) [µM]	Ki (Carbonic anhydrase 12) [µM]	Ki (Carbonic anhydrase 4 [1]) [µM]	IC50 (Carbonic anhydrase 4 [2]) [µM]	Compound
2.95	> 100	> 100	52.7	0.095		CCCNCCCN
> 100	78.4	> 100	7	> 100		CC(F)CN(CCCN1C(=O)c2ccccc2C1=O)S(=O)(=O)c1ccc([N+](=O)[O-])cc1 (centres undefined)
20	0.026	3.02	0.68	> 100		O=[N+]([O-])c1ccc(S(=O)(=O)NCC(F)CCl)cc1 (centres undefined)
> 100	4.26	> 100	> 100	0.13		CC(F)CNCCCN1C(=O)c2ccccc2C1=O (centres undefined)
> 100		> 100	> 100			CC(F)(F)CNCCCN1C(=O)c2ccccc2C1=O
	> 100	> 100	> 100			CC(F)(F)CNCCCCN
> 100	> 100	> 100	> 100	> 100		CN(CC(F)CN1C(=O)c2ccccc2C1=O)S(=O)(=O)c1ccc([N+](=O)[O-])cc1 (centres undefined)
0.026	0.012	0.25	0.006	0.074		CC(F)CNCCCCN1C(=O)c2ccccc2C1=O (centres undefined)
> 100	0.076	> 100	> 100	> 100		O=C1c2ccccc2C(=O)N1CC(F)CNS(=O)(=O)c1ccc([N+](=O)[O-])cc1 (centres undefined)
> 100		> 100		> 100		CC(F)(F)CN(CCCN1C(=O)c2ccccc2C1=O)S(=O)(=O)c1ccc([N+](=O)[O-])cc1
> 100	34	> 100	0.64	> 100		CC(F)CN(CCCCN1C(=O)c2ccccc2C1=O)S(=O)(=O)c1ccc([N+](=O)[O-])cc1 (centres undefined)
> 100	> 100	> 100		> 100		CC(F)(F)CN(CCCCN1C(=O)c2ccccc2C1=O)S(=O)(=O)c1ccc([N+](=O)[O-])cc1
> 100	> 100	> 100	> 100	> 100		CN(CC(F)CCl)S(=O)(=O)c1ccc([N+](=O)[O-])cc1 (centres undefined)
> 100	0.72	> 100	5.2	51.2		CC(F)CN(CCCN)S(=O)(=O)c1ccc([N+](=O)[O-])cc1 (centres undefined)
89	0.79	> 100	3.65	20.1		CN(CC(F)CN)S(=O)(=O)c1ccc([N+](=O)[O-])cc1 (centres undefined)
3.08	> 100	> 100	28.6	0.093		CCCNCCCCN
		> 100		> 100		CC(F)(F)CNCCCCN1C(=O)c2ccccc2C1=O
2.2	2.4	4.5	4.2	0.071	0.071	CC(F)CNS(=O)(=O)c1ccc([N+](=O)[O-])cc1 (centres undefined)
		> 100	> 100			CC(F)(F)CNCCCN
				0.0177		CC(=O)N1N=C(c2ccc(S(N)(=O)=O)cc2)CC1c1c(Cl)cccc1Cl (centres undefined)

Compound	Ki (Carbonic anhydrase 9) [µM]	Ki (Carbonic anhydrase 2) [µM]	Ki (Carbonic anhydrase 1) [µM]	Ki (Carbonic anhydrase 12) [µM]	Ki (Carbonic anhydrase 4 [1]) [µM]	IC50 (Carbonic anhydrase 4 [2]) [µM]
CC(F)CNCCCCN (centres undefined)	0.38	63.7	> 100	> 100	0.028	
CC(F)CNCCCN (centres undefined)	1.44	36.9	> 100	> 100	0.034	
